Laboratory results reported in patent US20190209618A1, “METHODS AND COMPOSITIONS FOR EXPANSION OF HEMATOPOIETIC STEM AND/OR PROGENITOR CELLS EMPLOYING A CYTOCHROME P450 1B1 (CYP1B1) INHIBITOR OR A MUSASHI-2 (MSI2) ACTIVATOR” (McMaster University, priority 2016, published 2019).
Like-named read-outs stand apart in the source and are kept apart here. Each block holds one compound with its values, some of them ahead of it.

Key:
[1] = tested on: Lin− CD34+ cells; experiment: HSPC expansion with TMS; assay type: cell-based, human; details: TMS 10 μM vs 0.1% DMSO, during culture
Experimental: Lin^− CD34^+ cells were cultured for 72 hours (lentiviral treated but non-transduced flow-sorted GFP^− cells) in StemSpan medium containing growth factors IL-6 (20 ng/ml), SCF (100 ng/ml), FLT3-L (100 ng/ml) and TPO (20 ng/ml) before the addition of the CYP1B1 inhibitor TMS (Abcam) at a concentration of 10 μM or mock treatment with 0.1% DMSO. Equal numbers of cells (12,000 per condition) were then allowed to proliferate for 7 days at which point they were counted and immunophenotyped for CD34 and CD133 expression.

[2] = tested on: Lin− CD34+CB HSPCs; experiment: High throughput screen of CYP family inhibitors for in vitro HSPC expansion
Experimental: FIG. 16: Primary screen for inhibitors of Cytochrome […] oxidases and promotion of in vitro HSPC expansion by primitive marker expression. 1000 flow sorted Lin− CD34+CB HSPCs were plated per well of a 96-well plate and test compounds were added at three doses (0.1 uM, 1.0 uM, 10 uM) in triplicate. Cell cultures were refreshed with medium every 3 days and at day 10 cells were counted and assessed for CD34 marker expression. […] Columns marked by “x” have a >2-fold increase compared to DMSO. Columns marked by “o” show at least a 1.5-fold increase compared to DMSO control. […] Data shown as mean+/−SEM from n=3 cultures.
FIG. 17: Primary screen for inhibitors of Cytochrome […] oxidases and promotion of in vitro HSPC expansion by total number CD34 marked cells. 1000 flow sorted Lin− CD34+CB HSPCs were plated per well of a 96-well plate and test compounds were added at three doses (0.1 uM, 1.0 uM, 10 uM) in triplicate. Cell cultures were refreshed with medium every 3 days and at day 10 cells were counted and assessed for CD34 marker expression. […] Columns marked by “x” have a >2-fold increase compared to DMSO. Columns marked by “o” show at least a 1.5-fold increase compared to DMSO control. […] Data shown as mean+/−SEM from n=3 cultures.
A screening approach was undertaken that tested the function of 3 alkaloid, 9 coumarin, and 17 flavonoid based compounds ([…], Table 1). The screening approach used 96-well plates seeded with 1000 FACS-purified CD34+ cells and treatment with 3 concentrations of each compound performed in triplicate culture wells (9 wells total per compound). Cells were cultured for 10 days and resultant growth was measured for cell number and surface marker expression by automated flow cytometer (MACS Quant).

[3] = tested on: Lin− CD34+ cells; experiment: MSI2 OE and control suspension cultures with AHR antagonist SR1; assay type: cell-based, human; details: SR1 750 nM vs DMSO, 10 days
Experimental: GFP^+ cells were isolated (20,000 cells per culture) and allowed to proliferate with or without SR1 for an additional 7 days at which point they were counted and immunophenotyped for CD34 and CD133 expression. […] GFP^+ cells were isolated (20,000 cells per culture) and allowed to proliferate with FICZ (200 nM; Santa Cruz Biotechnology) or DMSO (0.1%) for an additional 3 days at which point they were immunophenotyped for CD34 and CD133 expression.

[4] = tested on: AHR; experiment: AHR ChIP-seq comparison to downregulated gene sets; design: species or system human; details: ChIP-seq-identified AHR targets; SR1 500 nM, UM171 35 nM gene sets
Excerpt: Percentage of down regulated genes with AHR bound regions was then graphed for each gene set. P-values were generated with Fisher's exact test between gene lists.

[5] = tested on: CYP enzymes; details: cited from earlier work
[6] = summary statement referring to the Examples

% CD34+ at day 10 relative to DMSO ([2]; 1000 CD34+ cells per well, 0.1, 1.0, 10 uM, 10 days): > 2 fold | self-renewal and expansion of hematopoietic stem and progenitor cell cultures [2, 6]: promote the self-renewal and expansion
SMILES: COc1cc(/C=C/c2ccc(OC)cc2OC)cc(OC)c1 [TMS, (E)-2,3′,4,5′-Tetramethoxystilbene]
increase in frequency of CD34+ cells [1]: 1.5 fold | increase in total numbers of CD34+ cells [1]: 2 fold

SMILES: CC(C)n1cnc2c(NCCc3ccc(O)cc3)nc(-c3csc4ccccc34)nc21 [SR1, StemRegenin 1]
increase in percentage of CD34+ cells ([3]; MSI2 OE cultures): 4 fold | increase in percentage of CD34+ cells ([3]; control transduced cultures): 8 fold | enrichment of direct transcriptional targets of AHR in downregulated gene set compared to UM171 [4]: 5.6 fold

self-renewal and expansion of hematopoietic stem and progenitor cell cultures [2, 6]: promote the self-renewal and expansion
SMILES: COc1ccc(-c2cc(=O)c3c(O)cc(O)cc3o2)cc1 [Acacetin, 5,7-dihydroxy-2-(4-methoxyphenyl)-4H-1-benzopyran-4-one]

SMILES: O=c1cc(-c2ccccc2)oc2cc(O)cc(O)c12 [Chrysin, 5,7-Dihydroxy-2-phenyl-4H-chromen-4-one]
self-renewal and expansion of hematopoietic stem and progenitor cell cultures [2]: promote the self-renewal and expansion

self-renewal and expansion of hematopoietic stem and progenitor cell cultures [2, 6]: promote the self-renewal and expansion
SMILES: O=C1CC(c2ccc(O)cc2)Oc2cc(O)cc(O)c21 (centres unmarked) [Naringenin, 5,7-Dihydroxy-2-(4-hydroxyphenyl)chroman-4-one]

SMILES: O=c1c(-c2ccc(O)cc2)coc2cc(O)ccc12 [Daidzein, 7-Hydroxy-3-(4-hydroxyphenyl) chromen-4-one]
IC50 [5]: 7.9 µM
